Measurements taken from ChEMBL document CHEMBL1201862, “PubChem BioAssay data set” (2004).
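Values below derive from 48-hour exposures of cells grown in 96-well plates, with endpoints linearly interpolated between the two concentrations bracketing the appropriate inhibition level. GI50 is the concentration that inhibits growth by half.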 Activity calls are given as the source filed them. Rule as the data show it: active = GI50 up to about 1.1 µM and inactive = higher.

How the values were obtained:
Experiment in all cases: DTP human tumour cell line panel, 48 h
[1] = system: A549
[2] = system: OVCAR-4
[3] = system: T47D
[4] = system: HOP-62
[5] = system: M14
[6] = system: RPMI-8226
[7] = system: Malme-3M
[8] = system: SNB-19
[9] = system: HCT-15
[10] = system: ACHN
[11] = system: HCC 2998
[12] = system: TK-10
[13] = system: COLO 205
[14] = system: IGROV-1
[15] = system: HOP-92
[16] = system: NCI-H460
[17] = system: SR
[18] = system: OVCAR-3
[19] = system: NCI/ADR-RES
[20] = system: SF-295

| SMILES | GI50 [1] | GI50 [2] | GI50 [3] | GI50 [4] | GI50 [5] | GI50 [6] | GI50 [7] | GI50 [8] | GI50 [9] [µM] | GI50 [10] | GI50 [11] | GI50 [12] | GI50 [13] | GI50 [14] | GI50 [15] | GI50 [16] | GI50 [17] | GI50 [18] | GI50 [19] | GI50 [20] |
| --- | --- | --- | --- | --- | --- | --- | --- | --- | --- | --- | --- | --- | --- | --- | --- | --- | --- | --- | --- | --- |
| O=C1C(O)=C(CC=C(Cl)Cl)C(=O)c2ccccc21 | 4.44 µM (inactive) | 21.7 µM (inactive) | 38.5 µM (inactive) | 12.4 µM (inactive) | 12.6 µM (inactive) | 2.28 µM (inactive) | 10.8 µM (inactive) | 11 µM (inactive) | 0.757 | 12.3 µM (inactive) | 28 µM (inactive) | 38.9 µM (inactive) | 19.5 µM (inactive) | 6.5 µM (inactive) | 43 µM (inactive) | 1.45 µM (inactive) | 1.08 µM (active) | 13.5 µM (inactive) | 19.1 µM (inactive) | – |
| O=c1oc2ccc3ccccc3c2cc1-c1nc2ccc([N+](=O)[O-])cc2o1 | 14.7 µM (inactive) | 22.5 µM (inactive) | 66.8 µM (inactive) | 10.6 µM (inactive) | 25.5 µM (inactive) | > 51.1 µM (inactive) | 59.4 µM (inactive) | 13.8 µM (inactive) | 69 | 8.57 µM (inactive) | > 100 µM (inactive) | 28.3 µM (inactive) | > 100 µM (inactive) | 28.4 µM (inactive) | 33.6 µM (inactive) | 36.1 µM (inactive) | > 71.4 µM (inactive) | > 100 µM (inactive) | > 80.5 µM (inactive) | 13.5 µM (inactive) |
| CCC(=O)C(CCN1CCC2(CCCc3ccccc32)CC1)(c1ccccc1)c1ccccc1 | 3.63 µM (inactive) | 3.52 µM (inactive) | 3.29 µM (inactive) | 3.28 µM (inactive) | 1.87 µM (inactive) | 0.622 µM (active) | 1.91 µM (inactive) | 4.75 µM (inactive) | 2.55 | 2.85 µM (inactive) | 2.64 µM (inactive) | 3.77 µM (inactive) | 1.34 µM (inactive) | 2.77 µM (inactive) | 1.47 µM (inactive) | 2.52 µM (inactive) | 1.66 µM (inactive) | 2.2 µM (inactive) | 3.19 µM (inactive) | 2.02 µM (inactive) |
| OC1c2c(ccc3c2CCC3)CC12Cc1ccccc1C2 (stereo unspecified) | 17.1 µM (inactive) | 16.4 µM (inactive) | 16.5 µM (inactive) | 16.4 µM (inactive) | 15.3 µM (inactive) | 14.7 µM (inactive) | 12 µM (inactive) | 15.7 µM (inactive) | 16.5 | 16.8 µM (inactive) | 13.5 µM (inactive) | 14.8 µM (inactive) | 16.3 µM (inactive) | 17.7 µM (inactive) | 13 µM (inactive) | 17.1 µM (inactive) | 10.9 µM (inactive) | 13.6 µM (inactive) | 14.3 µM (inactive) | 17.1 µM (inactive) |
| C(/Cc1ccc2c(c1)OCO2)=N\N=C1NCCCN1 | 36.7 µM (inactive) | 98.9 µM (inactive) | 19.5 µM (inactive) | 28.4 µM (inactive) | 32.4 µM (inactive) | 56.1 µM (inactive) | 64.4 µM (inactive) | > 100 µM (inactive) | > 100 | 28 µM (inactive) | 41.7 µM (inactive) | > 100 µM (inactive) | 57 µM (inactive) | 68.2 µM (inactive) | 70.1 µM (inactive) | 19 µM (inactive) | 22.5 µM (inactive) | 80.2 µM (inactive) | 84.1 µM (inactive) | 38.2 µM (inactive) |
| COc1cc(CNc2c3ccccc3nc3ccccc23)cc(OC)c1OC | 3.32 µM (inactive) | 2.1 µM (inactive) | 6.38 µM (inactive) | 2.93 µM (inactive) | 2.59 µM (inactive) | 2.82 µM (inactive) | 3.71 µM (inactive) | 4.63 µM (inactive) | 2.97 | 3.07 µM (inactive) | 2.78 µM (inactive) | 5.53 µM (inactive) | 1.69 µM (inactive) | 3.81 µM (inactive) | 3.58 µM (inactive) | 2.57 µM (inactive) | 3.08 µM (inactive) | 5.21 µM (inactive) | 4.16 µM (inactive) | 3.56 µM (inactive) |
| Cc1ccc2c(c1)C(=O)C1(C2)Cc2c(C)cccc2C1=O (stereo unspecified) | > 100 µM (inactive) | > 100 µM (inactive) | > 100 µM (inactive) | > 100 µM (inactive) | > 100 µM (inactive) | > 100 µM (inactive) | > 100 µM (inactive) | > 100 µM (inactive) | > 100 | > 100 µM (inactive) | > 100 µM (inactive) | > 100 µM (inactive) | > 100 µM (inactive) | > 100 µM (inactive) | > 100 µM (inactive) | > 100 µM (inactive) | > 100 µM (inactive) | > 100 µM (inactive) | > 100 µM (inactive) | > 100 µM (inactive) |
| Cc1ccc(S(=O)(=O)N/C(=N\O)Nc2ccc(Cl)c(Cl)c2)cc1 | 13.3 µM (inactive) | 6.46 µM (inactive) | 11.4 µM (inactive) | 14.1 µM (inactive) | 5.58 µM (inactive) | 10.1 µM (inactive) | 2.07 µM (inactive) | 7.4 µM (inactive) | 6.67 | 11.9 µM (inactive) | 2.14 µM (inactive) | 14.6 µM (inactive) | 17.1 µM (inactive) | 13.9 µM (inactive) | 3.05 µM (inactive) | 9.95 µM (inactive) | 5.69 µM (inactive) | 4.41 µM (inactive) | 12.8 µM (inactive) | 17.2 µM (inactive) |
| O=S(=O)(/N=C(\NO)Nc1ccc(Cl)cc1)C1CC=C(c2ccon2)S1 (stereo unspecified) | 32.1 µM (inactive) | 3.52 µM (inactive) | 12.5 µM (inactive) | 40.5 µM (inactive) | 29 µM (inactive) | 6.07 µM (inactive) | 1.55 µM (inactive) | 30.1 µM (inactive) | 15.5 | 13 µM (inactive) | 15.3 µM (inactive) | 14.4 µM (inactive) | 15.7 µM (inactive) | 11.6 µM (inactive) | 10.3 µM (inactive) | 16 µM (inactive) | 2.3 µM (inactive) | 22.5 µM (inactive) | 22.1 µM (inactive) | 40.7 µM (inactive) |
| COc1cc2c(c(OC)c1)C(=O)O[C@H](C)CCCC/C=C/C2 | 30.6 µM (inactive) | 12.1 µM (inactive) | 9.16 µM (inactive) | 8.15 µM (inactive) | 12.7 µM (inactive) | 9.12 µM (inactive) | 13.1 µM (inactive) | 16.2 µM (inactive) | 10.2 | 12.5 µM (inactive) | 15.8 µM (inactive) | 15.8 µM (inactive) | 10.9 µM (inactive) | 9.06 µM (inactive) | 9.77 µM (inactive) | 11.1 µM (inactive) | > 53.5 µM (inactive) | 9.38 µM (inactive) | 29.2 µM (inactive) | 13.6 µM (inactive) |
| CCOC(=O)c1nc2cc(C(F)(F)F)ccc2nc1Nc1ccc(C(=O)OC)s1 | 48.6 µM (inactive) | 31 µM (inactive) | 25.7 µM (inactive) | 33.6 µM (inactive) | 37.6 µM (inactive) | 30.7 µM (inactive) | 38.5 µM (inactive) | 33.1 µM (inactive) | 34.2 | 37.8 µM (inactive) | 36.1 µM (inactive) | 42.8 µM (inactive) | 20.7 µM (inactive) | 40.9 µM (inactive) | 17.9 µM (inactive) | 33 µM (inactive) | 15.5 µM (inactive) | 19.3 µM (inactive) | 45.5 µM (inactive) | 43 µM (inactive) |
| O=C(CCNC12CC3CC(CC(C3)C1)C2)c1ccccc1 | 30.1 µM (inactive) | 36.8 µM (inactive) | 20.6 µM (inactive) | – | 17.8 µM (inactive) | 8.13 µM (inactive) | 18.2 µM (inactive) | 47 µM (inactive) | 16.5 | 25.9 µM (inactive) | 13.3 µM (inactive) | 18.2 µM (inactive) | 15 µM (inactive) | 21.6 µM (inactive) | 20.4 µM (inactive) | 19.6 µM (inactive) | 13.4 µM (inactive) | > 10 µM (inactive) | 21.2 µM (inactive) | 20 µM (inactive) |
| COC(=O)[C@H](CCSC)NC(=O)c1ccc(CNC(=O)/C(C)=C/c2ccccc2)cc1 | 52 µM (inactive) | 31.1 µM (inactive) | 21.8 µM (inactive) | 21.8 µM (inactive) | 30.8 µM (inactive) | > 100 µM (inactive) | 15.3 µM (inactive) | 24.7 µM (inactive) | > 100 | 44.3 µM (inactive) | 9.48 µM (inactive) | > 100 µM (inactive) | > 100 µM (inactive) | 50.1 µM (inactive) | 25.8 µM (inactive) | 26.6 µM (inactive) | 92.7 µM (inactive) | 60.8 µM (inactive) | 25.9 µM (inactive) | 48.5 µM (inactive) |
| Cc1oc2ccccc2c(=O)c1Cn1nnc2ccccc21 | 70.8 µM (inactive) | 53.3 µM (inactive) | 10.6 µM (inactive) | > 100 µM (inactive) | 80.7 µM (inactive) | 35.7 µM (inactive) | > 100 µM (inactive) | > 100 µM (inactive) | 96.2 | 41.6 µM (inactive) | > 100 µM (inactive) | > 100 µM (inactive) | 42.9 µM (inactive) | – | 18.6 µM (inactive) | 43.8 µM (inactive) | 35.9 µM (inactive) | 30.6 µM (inactive) | 60.7 µM (inactive) | > 100 µM (inactive) |
| COc1ccc2c(c1)-c1c(c3cc(OC)ccc3n1CCN1CCOCC1)CC2 | 23.9 µM (inactive) | 54 µM (inactive) | 44.4 µM (inactive) | 42.6 µM (inactive) | 15.8 µM (inactive) | 20.5 µM (inactive) | 28.2 µM (inactive) | – | 14.5 | 29.4 µM (inactive) | 1.76 µM (inactive) | 32.7 µM (inactive) | 20 µM (inactive) | 18.1 µM (inactive) | 24.4 µM (inactive) | 22.8 µM (inactive) | 3.94 µM (inactive) | 46.1 µM (inactive) | 20.7 µM (inactive) | 18.9 µM (inactive) |
